Laboratory results: ChEMBL document CHEMBL5046240, “Design, synthesis, and evaluation of potent RIPK1 inhibitors with in vivo anti-inflammatory activity” (Eur J Med Chem, 2022)

Key:
L929 = assay: Anti-necroptic activity in mouse L929 cells assessed as TNFalpha/Z-VAD (TSZ) induced necroptosis by measuring cell viability preincubated for 1 hr followed by TSZ addition and measured after 24 hrs by celltiter-glo luminescent cell viability assay; type: functional, cell-based
HT-29 = assay: Anti-necroptic activity in human HT-29 cells assessed as TNFalpha/Z-VAD (TSZ) induced necroptosis by measuring cell viability preincubated for 1 hr followed by TSZ addition ans measured after 24 hrs by celltiter-glo luminescent cell viability assay; type: functional, cell-based
[1] = Metabolic stability in human liver microsomes assessed as half life by LC-MS/MS analysis; type: ADME

| Structure (SMILES) | EC50 (L929) [nM] | EC50 (HT-29) [nM] | half-life [1] [min] |
| --- | --- | --- | --- |
| CC(=O)Nc1nc2ccc(-c3cnc(C)c(NC(=O)OC4CCCCC4)c3)cc2s1 | 13 | 23 | – |
| Cc1ncc(-c2ccc3nc(NC(=O)C4CC4)sc3c2)cc1NC(=O)OC1CCCC1 | 8.3 | 8.9 | 5.7 |
| CC(=O)Nc1nc2cc(-c3cnc(C)c(NC(=O)OC4CCCCC4)c3)ccn2n1 | – | > 1000 | – |
| CCC(C)OC(=O)Nc1cc(-c2ccc3nc(NC(=O)C4CC4)sc3c2)cnc1C (stereo not drawn) | – | 17 | 14 |
| Cc1ncc(-c2ccc3nc(NC(=O)C4CC4)sc3c2)cc1NC(=O)OC1CCCCC1 | 2.9 | 1.6 | 6.5 |
| CNC(=O)Nc1nc2ccc(-c3cnc(C)c(NC(=O)OC4CCCCC4)c3)cc2s1 | – | 7 | – |
| Cc1ncc(-c2ccc3nc(NC(=O)C4CC4)sc3c2)cc1NC(=O)OC1CC(C)OC(C)C1 (stereo not drawn) | 5.2 | 4.8 | 12 |
| CC(=O)Nc1nc2ccc(-c3cnc(C#N)c(NC(=O)OC4CCCCC4)c3)cc2s1 | – | 534 | – |
| CC(=O)Nc1nc2ccc(-c3cnc(C)c(NC(=O)OC4CCCCC4)c3)cn2n1 | – | > 1000 | – |
| Cc1ncc(-c2ccc3nc(NS(C)(=O)=O)sc3c2)cc1NC(=O)OC1CCCCC1 | – | > 1000 | – |
| CC(=O)Nc1nc2ccc(-c3cnc(C)c(NC(=O)OC4CCCCC4)c3)nc2s1 | 30 | 130 | – |
| Cc1ncc(-c2ccc3nc(N)sc3c2)cc1NC(=O)OC1CCCCC1 | – | 100 | – |
| CCc1ncc(-c2ccc3nc(NC(C)=O)sc3c2)cc1NC(=O)OC1CCCCC1 | 150 | 74 | – |
| CC(=O)Nc1nc2ccc(-c3ccc(C)c(NC(=O)OC4CCCCC4)n3)cc2s1 | – | 650 | – |
| CCC(=O)Nc1nc2ccc(-c3cnc(C)c(NC(=O)OC4CCCCC4)c3)cc2s1 | – | 38 | – |
| Cc1ncc(-c2ccc3nc(NC(=O)C4CC4)sc3c2)cc1NC(=O)OC1CCC(F)(F)CC1 | 2 | 6.1 | 43 |
| COc1ncc(-c2ccc3nc(NC(C)=O)sc3c2)cc1NC(=O)OC1CCCCC1 | – | 182 | – |
| CC(=O)Nc1nc2ncc(-c3cnc(C)c(NC(=O)OC4CCCCC4)c3)cc2s1 | – | > 1000 | – |
| Cc1ncc(-c2ccc3nc(NC(=O)C4CC4)sc3c2)cc1NC(=O)OC1CCCOC1 (stereo not drawn) | – | 27 | 15 |
| CC(=O)Nc1cn2nc(-c3cnc(C)c(NC(=O)OC4CCCCC4)c3)ccc2n1 | – | 97 | – |
| CNc1nc2ccc(-c3cnc(C)c(NC(=O)OC4CCCCC4)c3)cc2s1 | – | > 1000 | – |
| CC(=O)Nc1nc2ccc(-c3cc(NC(=O)OC4CCCCC4)c(C)nn3)cc2s1 | – | 206 | – |
| Cc1ncc(-c2ccc3nc(NC(=O)C4CC4)sc3c2)cc1NC(=O)OC1CCC1 | – | 16 | – |
| CC(=O)Nc1nc2ccc(-c3cc(NC(=O)OC4CCCCC4)c(C)cn3)cc2s1 | 15 | 73 | – |
| Cc1ncc(-c2ccc3nc(NC(=O)c4ccccc4)sc3c2)cc1NC(=O)OC1CCCCC1 | – | 52 | – |
| CC(=O)Nc1nc2cnc(-c3cnc(C)c(NC(=O)OC4CCCCC4)c3)cc2s1 | – | > 1000 | – |
| CCOC(=O)Nc1nc2ccc(-c3cnc(C)c(NC(=O)OC4CCCCC4)c3)cc2s1 | – | 53 | – |
| CC(=O)Nc1cn2cc(-c3cnc(C)c(NC(=O)OC4CCCCC4)c3)ccc2n1 | 45 | 97 | – |
